Data reported in US5608104A, “Immunological detection method of pyrethroid compound, haptenic compound, intermediate for the haptenic compound, immunogen and antibody” (Mitsui Toatsu Chemicals, Inc., priority 1993, dated 1997).

Tests used:
[1] = system: anti-etofenprox antibody II (E-antibody II); assay: Indirect competitive ELISA employing E-antibody II; type: binding, rabbit; settings: inhibition rate relative to etofenprox at its IC50 concentration (=100%); antibody 1/80,000, 20% methanol
Description: The ELISA method employing E-antibody II, on the other hand, will be described next. As the antigen, a 0.01 μg/ml solution of the conjugate between the haptenic compound (II) and RSA was employed. An E-antibody II solution, which had been diluted 64,000-fold, and a methanol solution of etofenprox were mixed at a ratio of 4:1 to give an antibody concentration and methanol concentration, each in the resulting solution, of 1/80,000 and 20%, respectively. The resulting solution was then reacted. As a second antibody, antirabbit IgG goat IgG in the form of a 5000-fold dilution was employed. In a similar manner to the above ELISA method, etofenprox concentrations ranging from 3 ng/ml to 1,000 ng/ml were successfully measured.
In addition, solutions of each of various pyrethroid compounds in methanol (concentration: 5-50,000 ng/ml) were each mixed with an E antibody II solution, which had been diluted 64,000-fold, at a ratio of 1:4, followed by incubation at 25° C. for one hour. The reaction mixture was treated as described in Example 8 and its cross reactivity was obtained.
The inhibition rates of other pyrethroid compounds when the inhibition rate of ethophenprox at IC50 concentration is designated as 100% are also shown as cross reactivity in Table 1.

[2] = system: anti-etofenprox antibody I (E-antibody I); assay: Indirect competitive ELISA employing E-antibody I; type: binding, rabbit; settings: inhibition rate relative to etofenprox at its IC50 concentration (=100%); antibody 1/40,000, 50% methanol
Description: 1. To a 96-well polystyrene microtiter plate, a solution of the conjugate between rabbit serum albumin (RSA) and the haptenic compound (I) dissolved in a coating buffer solution [10 mM phosphate buffer solution (pH 7.5), 100 mM NaC1] to give […] was added as an antigen at a ratio of 0.1 ml/well, followed by incubation at 4° C. overnight, whereby the antigen was adsorbed on the plate. After the excess solution was drained, a 3% solution of skim milk was added to the wells at a ratio of 0.3 ml/well, followed by incubation at 25° C. for one hour. The plate was washed thrice with a washing buffer [10 mM phosphate buffer solution (pH 7.2), 0.8% NaC1, 0.02% KCl, 0.02% "Tween 20"], whereby an antigen-coated plate was obtained.
2. The E-antibody I was diluted 20,000-fold with a diluting buffer [10 mM phosphate buffer solution (pH 7.5), 0.8% NaCl, 0.02% KCl] and was then mixed with a solution of etofenprox in methanol at a ratio of 1:1 to give an antibody concentration and a methanol concentration, both in the resulting solution, of 1/40,000 and 50%, respectively. The solution was reacted by incubation at 25° C. for one hour. The reaction mixture was added to the antigen-coated plate at a rate of 0.1 ml/well, followed by the reaction at 25° C. for one hour. The plate was then washed thrice with the washing buffer.
3. A conjugate between horseradish peroxidase and anti-rabbit IgG goat IgG (a second antibody) was diluted 10,000-fold with the washing buffer. The diluted conjugate was added to the antigen-coated plate at a rate of 0.1 ml/well, followed by incubation at 25° C. for one hour. The plate was washed thrice with the washing buffer.
4. To the antigen-coated plate, a chromogenic solution of o-phenylenediamine [0.2% (v/v) o-phenylenediamine and 100 mM phosphate-citrate buffer solution [pH 5.0, 0.003% (v/v) hydrogen peroxide] was added in an amount of 0.2 ml/well, followed by incubation at 25° C. for 10 minutes. The enzymatic reaction was then terminated by adding 4N sulfuric acid to the plate by at a rate of 0.05 ml/well. The absorbances at 492 nm and 630 nm were thereafter measured, respectively. According to this method, etofenprox concentrations ranging from 10 ng/ml to 10,000 ng/ml were successfully measured.
A solution of each of various pyrethroid compounds in methanol (having a concentration of 2-20,000 ng/ml) was mixed with a solution of the E antibody I, which had been diluted 20,000-fold with a diluting buffer, at a ratio of 1:1, followed by incubation at 25° C. for one hour.
Using the reaction mixture, measurement was conducted by the ELISA method as described in Example 8. The absorbance of the reaction mixture which had been obtained without addition of any pyrethroid compound is designated as 100%. The concentration of etophenprox. which inhibited 50% of the absorbance is designated as IC50 concentration. The inhibition rates of other pyrethroid compounds when the inhibition rate of ethophenprox at IC50 concentration is designated as 100% are shown as cross reactivity in Table 1.

Structure (SMILES)	Cross reactivity (%) E antibody II [1]	Cross reactivity (%) E antibody I [2]
CC1(C)C(/C=C(\Cl)C(F)(F)F)C1C(=O)OC(C#N)c1cccc(Oc2ccccc2)c1 (stereo not shown) [Cyhalothrin, cyhalothrin]	36%	92%
CC1(C)[C@H](C(=O)OCc2coc(Cc3ccccc3)c2)[C@@H]1/C=C1\CCSC1=O [Kadethrin, kadethrin]	164%	62%
CCOc1ccc([Si](C)(C)OCc2cccc(Oc3ccccc3)c2)cc1 [SSI-116, dimethyl-(4-ethoxyphenyl)-(3-phenoxybenzyloxy)silane]	103%	70%
CC1(C)C(C(=O)OC(C#N)c2cccc(Oc3ccccc3)c2)C1(C)C (stereo not shown) [Fenpropathrin, fenpropathrin]	48%	136%
CC(C)(COCc1cccc(Oc2ccccc2)c1)c1ccc(OC(F)(F)Br)cc1 [Halfenprox, halfenprox]	75%	85%
CCOc1ccc(C2(C(=O)OC(C#N)c3cccc(Oc4ccccc4)c3)CC2(Cl)Cl)cc1 (stereo not shown) [Cycloprothrin, cycloprothrin]	54%	103%
CC1(C)[C@H](C(=O)O[C@H](C#N)c2cccc(Oc3ccccc3)c2)[C@@H]1C(Br)C(Br)(Br)Br (stereo partly shown) [Tralomethrin, tralomethrin]	67%	116%
CC(C)=CC1C(C(=O)OCc2coc(Cc3ccccc3)c2)C1(C)C (stereo not shown) [Resmethrin, resmethrin]	85%	74%
C=CCC1=C(C)C(OC(=O)C2C(C=C(C)C)C2(C)C)CC1=O (stereo not shown) [Allethrin, allethrin]	54%	46%
CCOc1ccc(C(C)(C)CCCc2cccc(Oc3ccccc3)c2)cc1 [MTI-790, 1-(3-phenoxyphenyl)-4-(4-ethoxyphenyl)-4-methylpentane]	37%	23%
CCOc1ccc([Si](C)(C)CCCc2ccc(F)c(Oc3ccccc3)c2)cc1 [Silafluofen, silafluofen]	32%	57%
CC(C)C(C(=O)OC(C#N)c1cccc(Oc2ccccc2)c1)c1ccc(Cl)cc1 (stereo not shown) [Fenvarerate, fenvarerate]	50%	47%
CCOc1ccc(C(COCc2cccc(Oc3ccc(Cl)cc3)c2)C(F)(F)F)cc1 (stereo not shown) [Flufenprox]	74%	108%
Cc1c(COC(=O)C2C(C=C(Cl)C(F)(F)F)C2(C)C)cccc1-c1ccccc1 (stereo not shown) [Biphenthrin, biphenthrin]	81%	86%
CC(C)[C@H](C(=O)OC(C#N)c1cccc(Oc2ccccc2)c1)c1ccc(OC(F)F)cc1 (stereo partly shown) [Flucythrinate, flucythrinate]	60%	126%
CCOc1ccc(C(C)(C)CCCc2ccc(F)c(Oc3ccccc3)c2)cc1 [MTI-800, 1-(3-phenoxy-4-fluorophenyl)-4-(4-ethoxyphenyl)-4-methylpentane]	34%	54%
CC(C)[C@H](Nc1ccc(C(F)(F)F)cc1Cl)C(=O)OC(C#N)c1cccc(Oc2ccccc2)c1 (stereo partly shown) [Fluvalinate, fluvalinate]	23%	70%
